Experimental data as given in patent publication US20100093748A1, “SUBSTITUTED PIPERIDINES HAVING PROTEIN KINASE INHIBITING ACTIVITY” (ASTEX THERAPEUTICS LIMITED, priority 2006, published 2010).

Columns and labels:
PKA catalytic domain = target: T1, PKA catalytic domain (Homo sapiens, UniProt P17612); assay: Measurement of PKA kinase inhibitory activity (IC50), radiometric filter plate assay; type: biochemical; conditions: 1 nM enzyme, 40 μM ATP, 20 minutes
T1 construct: using the PKA catalytic domain from Upstate Biotechnology (#14-440); purchased Upstate Biotechnology 14-440
Experimental: Compounds of the invention can be tested for PK inhibitory activity using the PKA catalytic domain from Upstate Biotechnology (#14-440) and the 9 residue PKA specific peptide (GRTGRRNSI), also from Upstate Biotechnology (#12-257), as the substrate. A final concentration of 1 nM enzyme is used in a buffer that includes 20 mM MOPS pH 7.2, 40 μM ATP/γ^33P-ATP and […] substrate. Compounds are added in dimethylsulphoxide (DMSO) solution to a final DMSO concentration of 2.5%. The reaction is allowed to proceed for 20 minutes before addition of excess orthophosphoric acid to quench activity. Unincorporated γ^33P-ATP is then separated from phosphorylated proteins on a Millipore MAPH filter plate. The plates are washed, scintillant is added and the plates are then subjected to counting on a Packard Topcount.
The % inhibition of the PKA activity is calculated and plotted in order to determine the concentration of test compound required to inhibit 50% of the PKA activity (IC50).

PKB-PIF fusion protein = target: T2, PKB-PIF fusion protein (Homo sapiens, UniProt P31751); assay: Measurement of PKB kinase inhibitory activity (IC50), radiometric filter plate assay; type: biochemical; conditions: 0.6 nM enzyme, 30 μM ATP, AKTide-2T substrate, 20 minutes
T2 construct: PIF (fusion partner); made in house
Source text: The inhibition of protein kinase B (PKB) activity by compounds can be determined essentially as described by Andjelkovic et al. (Mol. Cell. Biol. 19, 5061-5072 (1999)) but using a fusion protein described as PKB-PIF and described in full by Yang et al (Nature Structural Biology 9, 940-944 (2002)). The protein is purified and activated with PDK1 as described by Yang et al. The peptide AKTide-2T (H-A-R-K-R-E-R-T-Y-S-F-G-H-H-A-OH) obtained from Calbiochem (#123900) is used as a substrate. A final concentration of 0.6 nM enzyme is used in a buffer that includes 20 mM MOPS pH 7.2, 30 μM ATP/γ^33P-ATP and 25 µM substrate. Compounds are added in DMSO solution to a final DMSO concentration of 2.5%. The reaction is allowed to proceed for 20 minutes before addition of excess orthophosphoric acid to quench activity. The reaction mixture is transferred to a phosphocellulose filter plate where the peptide binds and the unused ATP is washed away. After washing, scintillant is added and the incorporated activity measured by scintillation counting.
The % inhibition of the PKB activity is calculated and plotted in order to determine the concentration of test compound required to inhibit 50% of the PKB activity (IC50).

[1] = test system: phosphorylation of Serine-9 residue in Glycogen Synthase Kinase-3beta as surrogate marker of cellular PKB (Akt) activity; assay: In vitro MDA-MB-468 human breast adenocarcinoma GSK-3 phosphorylation assay; type: cell-based; conditions: MDA-MB-468 cells, 2 hours compound incubation, mean IC50, read-out: Cell pGSK3b IC50
How it was run: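 MDA-MB-468 cells (5000/well) were treated with compound for 2 h at 37° C, then fixed and immunostained for phospho-Ser9 GSK-3β with an Alexa Fluor 488 secondary antibody. Fluorescence was quantified on an Acumen Explorer. IC50 came from a background-corrected 4-parameter logistic fit with minimum set to zero; obvious outliers were excluded from means.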

T2 sequence (P31751 with tags, fused parts or gaps limits assumed): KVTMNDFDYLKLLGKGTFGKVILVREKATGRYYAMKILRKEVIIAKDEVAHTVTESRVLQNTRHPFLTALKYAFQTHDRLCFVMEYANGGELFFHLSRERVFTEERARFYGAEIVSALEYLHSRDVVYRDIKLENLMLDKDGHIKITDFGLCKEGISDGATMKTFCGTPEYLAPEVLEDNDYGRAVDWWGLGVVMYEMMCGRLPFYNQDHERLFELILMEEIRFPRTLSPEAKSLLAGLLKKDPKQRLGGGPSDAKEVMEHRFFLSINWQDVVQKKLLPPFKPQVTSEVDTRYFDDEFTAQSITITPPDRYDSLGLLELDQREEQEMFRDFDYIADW

Structure (SMILES) | IC50 (PKA catalytic domain) | IC50 (PKB-PIF fusion protein) | IC50 [1]
NC1(c2nc3cc(F)c(F)cc3[nH]2)CCN(c2ncnc3[nH]ccc23)CC1 [Example 2, 4-(5,6-Difluoro-1H-benzoimidazol-2-yl)-1-(7H-pyrrolo[2,3-d]pyrimidin-4-yl)-piperidin-4-ylamine] | < 1000 nM | < 100 nM | 
NC1(c2nc3ccc(F)cc3[nH]2)CCN(c2ncnc3[nH]ccc23)CC1 [Example 6, 4-(6-Fluoro-1H-benzoimidazol-2-yl)-1-(7H-pyrrolo[2,3-d]pyrimidin-4-yl)-piperidin-4-ylamine] | < 1000 nM | < 100 nM | 560 nM
NC1(c2nc3cc(F)cc(F)c3[nH]2)CCN(c2ncnc3[nH]ccc23)CC1 [Example 7, 4-(5,7-Difluoro-1H-benzoimidazol-2-yl)-1-(7H-pyrrolo[2,3-d]pyrimidin-4-yl)-piperidin-4-ylamine] |  | < 100 nM | 940 nM
COc1ccc2[nH]c(C3(N)CCN(c4ncnc5[nH]ccc45)CC3)nc2c1 [Example 8, 4-(5-Methoxy-1H-benzoimidazol-2-yl)-1-(7H-pyrrolo[2,3-d]pyrimidin-4-yl)-piperidin-4-ylamine] | < 1000 nM | < 100 nM | 
Cc1ccc2nc(C3(N)CCN(c4ncnc5[nH]cnc45)CC3)[nH]c2c1 [Example 17, 4-(6-Methyl-1H-benzoimidazol-2-yl)-1-(9H-purin-6-yl)-piperidin-4-ylamine] | < 1000 nM | < 100 nM | 320 nM
NC1(c2nc3ccccc3[nH]2)CCN(c2ncnc3[nH]c(=O)[nH]c23)CC1 [Example 18, 6-[4-amino-4-(1H-benzoimidazol-2-yl)-piperidin-1-yl]-7,9-dihydro-purin-8-one] | < 1000 nM | < 100 nM | 
NCC1(c2nc3ccccc3[nH]2)CCN(c2ncnc3[nH]ccc23)CC1 [Example 34, C-[4-(1H-Benzoimidazol-2-yl)-1-(7H-pyrrolo[2,3-d]pyrimidin-4-yl)-piperidin-4-yl]-methylamine] |  | < 100 nM | 
OCC1(c2nc3ccccc3[nH]2)CCN(c2ncnc3[nH]ccc23)CC1 [Example 35, [4-(1H-Benzoimidazol-2-yl)-1-(7H-pyrrolo[2,3-d]pyrimidin-4-yl)-piperidin-4-yl]-methanol] | < 1000 nM | < 1000 nM | 
NCC1(c2nc3ccccc3o2)CCN(c2ncnc3[nH]ccc23)CC1 [Example 36, C-[4-Benzooxazol-2-yl-1-(7H-pyrrolo[2,3-d]pyrimidin-4-yl)-piperidin-4-yl]-methylamine] |  | < 100 nM | 
NC1(c2nc3ccccc3o2)CCN(c2ncnc3[nH]ccc23)CC1 [Example 37, 4-Benzooxazol-2-yl-1-(7H-pyrrolo[2,3-d]pyrimidin-4-yl)-piperidin-4-ylamine] | < 1000 nM | < 100 nM | 
NC1(c2ncc(-c3ccccc3)o2)CCN(c2ncnc3[nH]ccc23)CC1 [Example 40, 4-(5-Phenyl-oxazol-2-yl)-1-(7H-pyrrolo[2,3-d]pyrimidin-4-yl)-piperidin-4-ylamine] |  | < 1000 nM | 
NC1(c2ncc(-c3ccccc3)[nH]2)CCN(c2ccnc3[nH]ccc23)CC1 [Example 41, 4-(5-phenyl-1H-imidazol-2-yl)-1-(1H-pyrrolo[2,3-b]pyridin-4-yl)-piperidin-4-ylamine] |  | < 100 nM | 

Further lines, results first:

IC50 (PKA catalytic domain) | IC50 (PKB-PIF fusion protein) | IC50 [1] | Structure (SMILES)
< 1000 nM | < 100 nM |  | NC1(c2nc3cccc(F)c3[nH]2)CCN(c2ncnc3[nH]ccc23)CC1 [Example 1, 4-(7-Fluoro-1H-benzoimidazol-2-yl)-1-(7H-pyrrolo[2,3-d]pyrimidin-4-yl)-piperidin-4-ylamine]
< 1000 nM | < 100 nM |  | NC1(c2nc3ccc(F)c(F)c3[nH]2)CCN(c2ncnc3[nH]ccc23)CC1 [Example 3, 4-(6,7-Difluoro-1H-benzoimidazol-2-yl)-1-(7H-pyrrolo[2,3-d]pyrimidin-4-yl)-piperidin-4-ylamine]
< 1000 nM | < 100 nM |  | Cc1cccc2nc(C3(N)CCN(c4ncnc5[nH]ccc45)CC3)[nH]c12 [Example 4, 4-(7-Methyl-1H-benzoimidazol-2-yl)-1-(7H-pyrrolo[2,3-d]pyrimidine-4-yl)-piperidin-4-ylamine]
< 1000 nM | < 100 nM |  | NC1(c2nc3ccccc3[nH]2)CCN(c2ncnc3[nH]ccc23)CC1 [Example 12, 4-(1H-benzoimidazol-2-yl)-1-(7H-pyrrolo[2,3-d]pyrimidin-4-yl)-piperidin-4-ylamine]
 | < 1000 nM |  | NC1(c2nc3ccccc3o2)CCN(c2ncnc3[nH]c(=O)[nH]c23)CC1 [Example 38, 6-(4-amino-4-benzooxazol-2-yl-piperidin-1-yl)-7,9-dihydro-purin-8-one]
 | < 100 nM |  | NC1(c2ncc(-c3ccccc3)[nH]2)CCN(c2ncnc3[nH]ccc23)CC1 [Example 39, 4-(5-Phenyl-1H-imidazol-2-yl)-1-(7H-pyrrolo[2,3-d]pyrimidin-4-yl)-piperidin-4-ylamine]
